Results published in article PMC4838304, “Effective Design of Multifunctional Peptides by Combining Compatible Functions” (PLoS Computational Biology, 2016).
Ends that are not written are not given here.

Experiments:
pGREG546 plasmid = assay: Electrophoretic mobility shift assay (EMSA), DNA retention; type: binding; details: 1μg pGREG546, DNA to peptide charge ratio 1:1 or 1:4, 30 minutes
Excerpt: To test the ability of the designed peptides to bind nucleic acids, we evaluated by electrophoretic mobility shift assays (EMSAs) the retention of DNA by the designed peptides. Each EMSA was executed with peptide quantities that were multiples of the DNA to peptide charge ratio. A DNA to peptide charge ratio of 1:1 is represented by the number of positive charges of the peptide required to neutralize the negative charges of the DNA backbone. Retention in the gel is an indirect measure of the fraction of positive charges within the peptide participating in binding the DNA molecules. All EMSA assays were performed using the yeast plasmid pGREG546. As negative control, pGREG546 without any peptide was used, and as positive control the known DNA-binding cell penetrating peptide MPG was used. […] However, retention in the gel was observed when NLS was joined to any larger peptide fragment.
Fig 4 DNA binding. (A) Quantification of DNA retention obtained from three independent electrophoretic mobility shift assays. All measurements are shown and horizontal bars denote the sample mean. Representative gels are shown in (B-C).
1μg of pGREG546 plasmid was pre-incubated with the required quantity of each peptide to result in a 1:1 or 1:4 peptide charge to DNA charge ratio. Samples were incubated for 30 minutes and loaded on a 1% Agarose gel in SB buffer. DNA affinity was quantified by measuring the mean pixel intensity of the DNA bands with Fiji (http://fiji.sc) and normalizing to the intensity range between an empty spot on the gel and the intensity of the pGREG546 plasmid without any added peptide. Analysis scripts for the EMSA experiments as well as the raw data can be found with the distributed source code at http://bis.ifc.unam.mx/software/dcf.

[1] = Circular dichroism, secondary structure content (CONTIN/LL); type: physicochemical; details: for Secondary Structure Random coil / Secondary Structure α-Helix / Secondary Structure β-Sheet: 0.3mg in 1mL, 20°C, far-UV CD, CONTIN/LL
Description: We studied the structural properties of the peptides in vitro, using circular dichroism (see Materials and Methods). The far-UV CD spectra for NLS-CE, NLS-α and NLS-α-CE in water matched the characteristics of a random coil conformation.
Circular dichroism spectra were recorded on a ChirascanTM CD Spectrometer (Applied Photophysics, UK) equipped with a peltier temperature controller. 0.3mg of each peptide was dissolved in 1mL of water or 50% aqueous trifluoroethanol and placed in quartz cuvettes of 0.1cm path length. Far-UV CD spectra were collected from 185 to 250 nm at 20°C. Spectra were averaged over 5 scans and the averaged blank spectra of solvents were subtracted. Ellipticity is reported as mean residue molar ellipticity and recorded in terms of molar elipticity [θ] (deg cm^2 dmol^−1). CONTIN/LL within the CDPro analysis software program was used to estimate the secondary structure content of the peptides.

[2] = test system: Escherichia coli strain DH5α; type: cell-based; details: 12 h

For “FRKWRRKPKKKRKVWWRKVKRRWHWLQLKPGQPMY [NLS-α-CE]”, the “DNA binding in EMSA, in words” value (pGREG546 plasmid) was “effective DNA-binding activity”, the “Secondary Structure Random coil” value ([1]; 50% TFE) was 59% and the “Secondary Structure α-Helix” value ([1]; 50% TFE) was 10%. The “Secondary Structure β-Sheet” value ([1]; 50% TFE) was 31%, the “aggregation suggested by decrease in negative ellipticity” value ([1]; 50% TFE, CD spectra) was “TFE promoted aggregation of the peptides” and the “Secondary Structure Random coil” value ([1]; water) was 64%. For the same sequence, the “Secondary Structure α-Helix” value ([1]; water) was 6%, the “Secondary Structure β-Sheet” value ([1]; water) was 30% and the “E. coli MIC for 100% inhibition” value [2] was 2 µM.

With “KRRWRFVWMNPKKKRKVPPWPYLLWWHWLQLKPGQPMY [chimera]” the “DNA binding in EMSA, in words” value (pGREG546 plasmid) was “effective DNA-binding activity”, the “Secondary Structure Random coil” value ([1]; 50% TFE) was 48% and the “Secondary Structure α-Helix” value ([1]; 50% TFE) was 24%. For the same sequence, the “Secondary Structure β-Sheet” value ([1]; 50% TFE) was 28%, the “Secondary Structure Random coil” value ([1]; water) was 59% and the “Secondary Structure α-Helix” value ([1]; water) was 8%. For the same sequence, the “Secondary Structure β-Sheet” value ([1]; water) was 33% and the “E. coli MIC for 100% inhibition” value [2] was 22 µM.
